# Measurements: patent US6835720B2, “Compounds having antiviral activity” (Nissin Food Products Co., Ltd., priority 1996, dated 2004)
# pIC50: −log10 of the molar value. Like-named read-outs stand apart in the source and are kept apart here.
# Assays:
# [1] = tested on: AIDS virus (HIV-1, IIIb); assay type: cell-based; conditions: HIV-1 IIIb in H9 cells, p24 in culture supernatant by ELISA on the 6th day
# Procedure: (§1) Samples of various concentrations (25 μl) are distributed into a 24-well microplate, immediately added with human T cells (H9 cell line, 1.2×10^5/ml) (1 ml), covered, and incubated at 37° C. for 1 h. Then, AIDS virus (HIV-1, IIIb, 100 TCID 50) (25 μl) is added to each well and thoroughly mixed, covered again, and incubated under the CO2 atmosphere at 37° C. for 3 days. On the fourth day, aliquots (200 μl) of the culture medium from each well are transferred into a fresh microplate. The growth medium (500 μl) is added to each well, and further incubated for 2 days.
# (§2) On the 6th day, aliquots (90 μl) of the culture supernatant are withdrawn, and assayed the amount of p24, a constituent of HIV-1, by ELISA method using the anti-p24 antibody to assess the growth of said virus. Also, using the remaining cell culture suspension (100 μl), viable cells are counted by the MTT method. Experimental values are expressed as the ratios (%) to the negative control value (measured using the solvent to dissolve test compounds as the sample) to represent the anti-HIV activity and cytotoxicity. Then, for the unified representation of the anti-HIV activity and cytotoxicity, the concentrations of test compounds at their 50% values are obtained from the activity-concentration curves and the cytotoxicity-concentration, and represented as IC50 and CC50, respectively.
# [2] = tested on: human T cells (H9 cell line); assay: Cytotoxicity, viable cells counted by the MTT method; assay type: cell-based
# Procedure: as §1, §2
Compound,pIC50 [1],CC50 [2],"CC50 ([2]; H9 cells, MTT method, 6th day, read-out: CC 50)"
"1-[N-{5-Acetamido-3,5-dideoxy-2-O-methyl-4,7,8,9-tetra-O-(sodium oxysulfonyl)-D-glycero-β-D-galacto-2-nonulopyranosonyl}amino]-2,2-bis(docosyloxymethyl) propane [Example 59]",5.85,> 200 µM,–
"3-O-[Sodium{5-acetamido-3,5-dideoxy-4,7,8,9-tetra-O-(sodium oxysulfonyl)-D-glycero-α-D-galacto-2-nonulopyranosyl}onate]-1,2-di-O-tetradecyl-Sn-glycerol [Example 7]",4.80,> 200 µM,–
"3-S-[Sodium{5-acetamido-3,5-dideoxy-4,7,8,9-tetra-O-(sodium oxysulfonyl)-D-glycero-α-D-galacto-2-nonulopyranosyl}onate]-1,2-di-O-tetradecyl-Sn-thioglycerol [Example 14]",4.82,> 200 µM,–
"CCCCCCCCCCOCC(COC1(C(=O)O)CC(OS(=O)(=O)O)C(NC(C)=O)C(C(OS(=O)(=O)O)C(COS(=O)(=O)O)OS(=O)(=O)O)O1)OCCCCCCCCCC [Example 5, 3-O-[Sodium{5-acetamido-3,5-dideoxy-4,7,8,9-tetra-O-(sodiumoxysulfonyl)-D-glycero-α-D-galacto-2-nonulopyranosyl}onate]-1,2-di-O-decyl-Sn-glycerol]",4.34,> 200 µM,–
"CCCCCCCCCCOCC(COC1(C(=O)O)CC(OS(=O)(=O)O)C(NC(C)=O)C(C(OS(=O)(=O)O)C(COS(=O)(=O)O)OS(=O)(=O)O)O1)OCCCCCCCCCC [Example 6, 3-O-[Sodium{5-acetamido-3,5-dideoxy4,7,8,9-tetra-O-(sodiumoxysulfonyl)-D-glycero-β-D-galacto-2-nonulopyranosyl}onate]-1,2-di-O-decyl-Sn-glycerol]",4.30,–,> 200 µM
"CCCCCCCCCCCCCCOCC(COC1(C(=O)O)CC(OS(=O)(=O)O)C(NC(C)=O)C(C(OS(=O)(=O)O)C(COS(=O)(=O)O)OS(=O)(=O)O)O1)OCCCCCCCCCCCCCC [Example 8, 3-O-[Sodium{5-acetamido-3,5-dideoxy-4,7,8,9-tetra-O-(sodiumoxysulfonyl)-D-glycerol-β-D-galacto-2-nonulopyranosyl}ornate]-1,2-di-O-tetradecyl-Sn-glycerol]",4.82,> 200 µM,–
"CCCCCCCCCCCCCCCCCCOCC(COC1(C(=O)O)CC(OS(=O)(=O)O)C(NC(C)=O)C(C(OS(=O)(=O)O)C(COS(=O)(=O)O)OS(=O)(=O)O)O1)OCCCCCCCCCCCCCCCCCC [Example 9, 3-O-[Sodium{5-acetamido-3,5-dideoxy-4,7,8,9-tetra-O-(sodiumoxysulfonyl)-D-glycerol-α-D-galacto-2-nonulopyranosyl)onate]-1,2-di-O-octadecyl-Sn-glycerol]",5.42,> 200 µM,–
"CCCCCCCCCCCCCCCCCCOCC(COC1(C(=O)O)CC(OS(=O)(=O)O)C(NC(C)=O)C(C(OS(=O)(=O)O)C(COS(=O)(=O)O)OS(=O)(=O)O)O1)OS(=O)(=O)O [Example 10, 3-O-[Sodium{5-acetamido-3,5-dideoxy-4,7,8,9-tetra-O-(sodiumoxysulfonyl)-D-glycero-α-D-galacto-2-nonulopyranosyl}onate]-2-O-(sodiumoxysulfonyl)-1-O-octadecyl-Sn-glycerol]",4.52,> 200 µM,–
"CCCCCCCCCCCCCCCCCCOC[C@H](CO[C@@]1(C(=O)O)C[C@H](OS(=O)(=O)O)[C@@H](NC(C)=O)[C@H]([C@H](OS(=O)(=O)O)[C@@H](COS(=O)(=O)O)OS(=O)(=O)O)O1)OS(=O)(=O)O [Example 11, 3-O-[Sodium{5-acetamido-3,5-dideoxy4,7,8,9-tetra-O-(sodiumoxysulfonyl)-D-glycero-β-D-galacto-2-nonulopyranosyl}onate]-2-O-(sodiumoxysulfonyl)-1-O-octadecyl-Sn-glycerol]",4.89,200 µM,–
"CCCCCCCCCCCCCCCCCCCCOCC(COC1(C(=O)O)CC(OS(=O)(=O)O)C(NC(C)=O)C(C(OS(=O)(=O)O)C(COS(=O)(=O)O)OS(=O)(=O)O)O1)OCCCCCCCCCCCCCCCCCCCC [Example 17, 3-O-[Sodium{5-acetamido-3,5-dideoxy-4,7,8,9-tetra-O-(sodiumoxysulfonyl)-D-glycero-α-D-galacto-2-nonulopyranosyl)onate]-1,2-di-O-eicosyl-Sn-glycerol]",5.60,> 20 µM,–
"CCCCCCCCCCCCCCCCCCCCCCCCOCC(COC1(C(=O)O)CC(OS(=O)(=O)O)C(NC(C)=O)C(C(OS(=O)(=O)O)C(COS(=O)(=O)O)OS(=O)(=O)O)O1)OCCCCCCCCCCCCCCCCCCCCCCCC [Example 20, 3-O-[Sodium{5-acetamido-3,5-dideoxy-4,7,8,9-tetra-O-(sodiumoxysulfonyl)-D-glycero-α-D-galacto-2-nonulopyranosyl}onate]-1,2-di-O-tetracosyl-Sn-glycerol]",5.92,> 20 µM,–
"CC(=O)N[C@H]1[C@H]([C@H](OS(=O)(=O)O)[C@@H](COS(=O)(=O)O)OS(=O)(=O)O)O[C@@](O[C@H]2CC[C@@]3(C)C(=CC[C@H]4[C@@H]5CC[C@H]([C@H](C)CCCC(C)C)[C@@]5(C)CC[C@@H]43)C2)(C(=O)O)C[C@@H]1OS(=O)(=O)O [Example 24, 3β-[Sodium{5-acetamido-3,5-dideoxy-4,7,8,9-tetra-O-(sodiumoxysulfonyl)-D-glycero-α-D-galacto-2-nonulopyranosyl}onate]-5-cholestene]",4.47,> 200 µM,–
"CCCCCCCC/C=C\CCCCCCCCOC1(C(=O)O)CC(OS(=O)(=O)O)C(NC(C)=O)C(C(OS(=O)(=O)O)C(COS(=O)(=O)O)OS(=O)(=O)O)O1 [Example 25, Sodium[oleyl 5-acetamido-3,5-dideoxy-4,7,8,9-tetra-O-(sodiumoxysulfonyl)-D-glycero-α-D-galacto-2-nonulopyranosid]onate]",4.00,> 200 µM,–
"CCCCCCCCCCCCCCCCCCO[C@]1(C(=O)O)C[C@H](OS(=O)(=O)O)[C@@H](NC(C)=O)[C@H]([C@H](OS(=O)(=O)O)[C@@H](COS(=O)(=O)O)OS(=O)(=O)O)O1 [Example 26, Sodium[octadecyl 5-acetamido-3,5-dideoxy-4,7,8,9-tetra-O-(sodiumoxysulfonyl)-D-glycero-α-D-galacto-2-nonulopyranosid)onate]",4.00,> 200 µM,–
"CCCCCCCCCCCCCCCCCCCCOCC(C)(COCCCCCCCCCCCCCCCCCCCC)CO[C@]1(C(=O)O)C[C@H](OS(=O)(=O)O)[C@@H](NC(C)=O)[C@H]([C@H](OS(=O)(=O)O)[C@@H](COS(=O)(=O)O)OS(=O)(=O)O)O1 [Example 32, Sodium[2,2-bis(eicosyloxymethyl)propyl 5-acetamido-3,5-dideoxy-4,7,8,9-tetra-O-(sodiumoxysulfonyl)-D-glycero-α-D-galacto-2-nonulopyranosid)onate]",5.60,> 200 µM,–
"CCCCCCCCCCCCCCCCCCCCCCOc1cc(OCCCCCCCCCCCCCCCCCCCCCC)cc(O[C@@]2(C(=O)O)C[C@H](OS(=O)(=O)O)[C@@H](NC(C)=O)[C@H]([C@H](OS(=O)(=O)O)[C@@H](COS(=O)(=O)O)OS(=O)(=O)O)O2)c1 [Example 35, Sodium[3,5-Didocosyloxyphenyl-5-acetamido-3,5-dideoxy-4,7,8,9-tetra-O-(sodiumoxysulfonyl)-D-glycero-β-D-galacto-2-nonulopyranosid)onate]",4.05,> 20 µM,–
